The source of these data is US20230123334A1, “AMINO LIPID COMPOUND, PREPARATION METHOD THEREFOR, AND APPLICATION THEREOF” (SHENZHEN SHENXIN BIOTECHNOLOGY CO., LTD., priority 2020, published 2023).

This experiment relates to HEK293 cells. Description: Preliminary screening as mRNA vectors, EGFP mRNA transfection of HEK293 cells. The format is cell-based. Conditions: EGFP mRNA 50 ng per well, 96-well plates; percentage of GFP fluorescent cells relative to total number of cells (Hoechst). The gist of the method:
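Screening format: EGFP mRNA transfection (50 ng/well) into HEK293 in 10% FBS-supplemented DMEM. Percent green fluorescent cells, normalised to Hoechst nuclear count, gave the value; Lipofectamine2000 was the reference transfectant.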

Regarding `CCCCCCCCCCCCCCCCNc1nc(NCCCN2CCN(C)CC2)nc(SCCCCCCCC)n1` [Compound D9S8N16], the “Absolute mRNA transfection efficiency in HEK293 cells” value (“Absolute mRNA transfection efficiency” for short) was determined as 21.2%. For `CCCCCCCCCCCCCCCCCCNc1nc(NCCCN2CCN(C)CC2)nc(SCCCCCCCC)n1` [Compound D9S8N18], the “Absolute mRNA transfection efficiency” value was 29.4%.

Turning to `CCCCCCCCSc1nc(NCCCN2CCN(C)CC2)nc(SCCCCCCCC)n1` [Compound D9S8S8], the “Absolute mRNA transfection efficiency” value came to 53.3%. Under `CCCCCCCCCSc1nc(NCCCN2CCN(C)CC2)nc(SCCCCCCCC)n1` [Compound D9S8S9] stands 85.2%; under `CCCCCCCCCCSc1nc(NCCCN2CCN(C)CC2)nc(SCCCCCCCC)n1` [Compound D9S8S10], 79.4%; under `CCCCCCCCCCCSc1nc(NCCCN2CCN(C)CC2)nc(SCCCCCCCC)n1` [Compound D9S8S11], 97.6%. For `CCCCCCCCCCCCSc1nc(NCCCN2CCN(C)CC2)nc(SCCCCCCCC)n1` [Compound D9S8S12], the “Absolute mRNA transfection efficiency” value came out at 23.6%. For the compound `CCCCCCCCCSc1nc(NCCCCCC)nc(NCCCN2CCN(C)CC2)n1` [Compound D9S9N6], the “Absolute mRNA transfection efficiency” value is 1.8%. As to `CCCCCCCCCSc1nc(NCCCCCCC)nc(NCCCN2CCN(C)CC2)n1` [Compound D9S9N7], the “Absolute mRNA transfection efficiency” value was determined as 2.8%.

For the compound `CCCCCCCCCSc1nc(NCCCCCCCC)nc(NCCCN2CCN(C)CC2)n1` [Compound D9S9N8], the “Absolute mRNA transfection efficiency” value worked out at 9.2%. To `CCCCCCCCCNc1nc(NCCCN2CCN(C)CC2)nc(SCCCCCCCCC)n1` [Compound D9S9N9] belongs 76.1%; to `CCCCCCCCCCCNc1nc(NCCCN2CCN(C)CC2)nc(SCCCCCCCCC)n1` [Compound D9S9N11], 49.2%; to `CCCCCCCCCCCCNc1nc(NCCCN2CCN(C)CC2)nc(SCCCCCCCCC)n1` [Compound D9S9N12], 36.0%. For the compound `CCCCCCCCCCCCCNc1nc(NCCCN2CCN(C)CC2)nc(SCCCCCCCCC)n1` [Compound D9S9N13], the “Absolute mRNA transfection efficiency” value is recorded as 20.0%. For the compound `CCCCCCCCCCCCCCCNc1nc(NCCCN2CCN(C)CC2)nc(SCCCCCCCCC)n1` [Compound D9S9N15], the “Absolute mRNA transfection efficiency” value is on record as 6.3%. As for `CCCCCCCCCCCCCCCCNc1nc(NCCCN2CCN(C)CC2)nc(SCCCCCCCCC)n1` [Compound D9S9N16], the “Absolute mRNA transfection efficiency” value was determined as 16.7%.

As for `CCCCCCCCCCCCCCCCCCNc1nc(NCCCN2CCN(C)CC2)nc(SCCCCCCCCC)n1` [Compound D9S9N18], the “Absolute mRNA transfection efficiency” value is recorded as 14.5%. To `CCCCCCCCCCSc1nc(NCCCCCC)nc(NCCCN2CCN(C)CC2)n1` [Compound D9S10N6] belongs 1.1%; to `CCCCCCCCCCSc1nc(NCCCCCCC)nc(NCCCN2CCN(C)CC2)n1` [Compound D9S10N7], 0.8%; to `CCCCCCCCCCSc1nc(NCCCCCCCC)nc(NCCCN2CCN(C)CC2)n1` [Compound D9S10N8], 5.4%. As to `CCCCCCCCCCSc1nc(NCCCCCCCCC)nc(NCCCN2CCN(C)CC2)n1` [Compound D9S10N9], the “Absolute mRNA transfection efficiency” value is 10.5%. On to `CCCCCCCCCCCNc1nc(NCCCN2CCN(C)CC2)nc(SCCCCCCCCCC)n1` [Compound D9S10N11], for which the “Absolute mRNA transfection efficiency” value is 11.3%. Take `CCCCCCCCCCCCNc1nc(NCCCN2CCN(C)CC2)nc(SCCCCCCCCCC)n1` [Compound D9S10N12]: the “Absolute mRNA transfection efficiency” value worked out at 6.0%.

On to `CCCCCCCCCCCCCNc1nc(NCCCN2CCN(C)CC2)nc(SCCCCCCCCCC)n1` [Compound D9S10N13], for which the “Absolute mRNA transfection efficiency” value was 2.7%. In the case of `CCCCCCCCCCCCCCCNc1nc(NCCCN2CCN(C)CC2)nc(SCCCCCCCCCC)n1` [Compound D9S10N15], the “Absolute mRNA transfection efficiency” value is 5.4%. For the compound `CCCCCCCCCCCCCCCCNc1nc(NCCCN2CCN(C)CC2)nc(SCCCCCCCCCC)n1` [Compound D9S10N16], the “Absolute mRNA transfection efficiency” value came out at 13.6%. To `CCCCCCCCCCCCCCCCCCNc1nc(NCCCN2CCN(C)CC2)nc(SCCCCCCCCCC)n1` [Compound D9S10N18] belongs 9.0%; to `CCCCCCCCCCCSc1nc(NCCCCCC)nc(NCCCN2CCN(C)CC2)n1` [Compound D9S11N6], 12.2%. On to `CCCCCCCCCCCSc1nc(NCCCCCCC)nc(NCCCN2CCN(C)CC2)n1` [Compound D9S11N7], for which the “Absolute mRNA transfection efficiency” value turned out to be 10.5%. On to `CCCCCCCCCCCSc1nc(NCCCCCCCC)nc(NCCCN2CCN(C)CC2)n1` [Compound D9S11N8], for which the “Absolute mRNA transfection efficiency” value came to 37.6%. Regarding `CCCCCCCCCCCSc1nc(NCCCCCCCCC)nc(NCCCN2CCN(C)CC2)n1` [Compound D9S11N9], the “Absolute mRNA transfection efficiency” value was found to be 60.3%. As to `CCCCCCCCCCCNc1nc(NCCCN2CCN(C)CC2)nc(SCCCCCCCCCCC)n1` [Compound D9S11N11], the “Absolute mRNA transfection efficiency” value turned out to be 24.5%. For the compound `CCCCCCCCCCCCNc1nc(NCCCN2CCN(C)CC2)nc(SCCCCCCCCCCC)n1` [Compound D9S11N12], the “Absolute mRNA transfection efficiency” value is listed as 21.7%. Consider `CCCCCCCCCCCCCNc1nc(NCCCN2CCN(C)CC2)nc(SCCCCCCCCCCC)n1` [Compound D9S11N13], for which the “Absolute mRNA transfection efficiency” value worked out at 9.4%. On to `CCCCCCCCCCCCCCCNc1nc(NCCCN2CCN(C)CC2)nc(SCCCCCCCCCCC)n1` [Compound D9S11N15], for which the “Absolute mRNA transfection efficiency” value turned out to be 15.7%.

As for `CCCCCCCCCCCCCCCCNc1nc(NCCCN2CCN(C)CC2)nc(SCCCCCCCCCCC)n1` [Compound D9S11N16], the “Absolute mRNA transfection efficiency” value is 3.9%. As for `CCCCCCCCCCCCCCCCCCNc1nc(NCCCN2CCN(C)CC2)nc(SCCCCCCCCCCC)n1` [Compound D9S11N18], the “Absolute mRNA transfection efficiency” value is given as 14.9%. For `CCCCCCCCCCCCSc1nc(NCCCCCC)nc(NCCCN2CCN(C)CC2)n1` [Compound D9S12N6], the “Absolute mRNA transfection efficiency” value is 0.2%. Turning to `CCCCCCCCCCCCSc1nc(NCCCCCCC)nc(NCCCN2CCN(C)CC2)n1` [Compound D9S12N7], the “Absolute mRNA transfection efficiency” value amounted to 0.6%. For the compound `CCCCCCCCCCCCSc1nc(NCCCCCCCC)nc(NCCCN2CCN(C)CC2)n1` [Compound D9S12N8], the “Absolute mRNA transfection efficiency” value is given as 20.1%. As to `CCCCCCCCCCCCSc1nc(NCCCCCCCCC)nc(NCCCN2CCN(C)CC2)n1` [Compound D9S12N9], the “Absolute mRNA transfection efficiency” value worked out at 25.6%. With `CCCCCCCCCCCCSc1nc(NCCCCCCCCCCC)nc(NCCCN2CCN(C)CC2)n1` [Compound D9S12N11], the “Absolute mRNA transfection efficiency” value is on record as 3.3%. To `CCCCCCCCCCCCNc1nc(NCCCN2CCN(C)CC2)nc(SCCCCCCCCCCCC)n1` [Compound D9S12N12] belongs 0.9%; to `CCCCCCCCCCCCCNc1nc(NCCCN2CCN(C)CC2)nc(SCCCCCCCCCCCC)n1` [Compound D9S12N13], 1.0%.
